Data from PMC9927415, “Tyrosine Kinase Inhibitors Display Potent Activity against Cryptosporidium parvum” (Microbiology Spectrum, 2022).

What was measured:
Test in all cases: KINOMEscan competitive binding, whole panel
panel of 203 kinases [1] = biological target: T1, panel of 203 kinases (Homo sapiens, UniProt Q13557); settings: 10 µM, n=1; kinase CAMK2D; read-out: Percent inhibition CAMK2D
T1 construct: purchased DiscoverX (KINOMEscan)
How it was run: (§1)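 Kinases expressed as T7 bacteriophage fusions; test compound competes with an immobilized ATP-site probe ligand. Kinase still bound to the solid support was quantified and expressed as percentage inhibition.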

panel of 203 kinases [2] = biological target: T2, panel of 203 kinases (Homo sapiens, UniProt P53671); settings: 10 µM, n=1; kinase LIMK2; read-out: Percent inhibition LIMK2
T2 construct: purchased DiscoverX (KINOMEscan)
How it was run: as §1

panel of 203 kinases [3] = biological target: T3, panel of 203 kinases (Homo sapiens, UniProt Q96D53); settings: 10 µM, n=1; kinase ADCK4; read-out: Percent inhibition ADCK4
T3 construct: purchased DiscoverX (KINOMEscan)
T3 sequence (Q96D53 1-544): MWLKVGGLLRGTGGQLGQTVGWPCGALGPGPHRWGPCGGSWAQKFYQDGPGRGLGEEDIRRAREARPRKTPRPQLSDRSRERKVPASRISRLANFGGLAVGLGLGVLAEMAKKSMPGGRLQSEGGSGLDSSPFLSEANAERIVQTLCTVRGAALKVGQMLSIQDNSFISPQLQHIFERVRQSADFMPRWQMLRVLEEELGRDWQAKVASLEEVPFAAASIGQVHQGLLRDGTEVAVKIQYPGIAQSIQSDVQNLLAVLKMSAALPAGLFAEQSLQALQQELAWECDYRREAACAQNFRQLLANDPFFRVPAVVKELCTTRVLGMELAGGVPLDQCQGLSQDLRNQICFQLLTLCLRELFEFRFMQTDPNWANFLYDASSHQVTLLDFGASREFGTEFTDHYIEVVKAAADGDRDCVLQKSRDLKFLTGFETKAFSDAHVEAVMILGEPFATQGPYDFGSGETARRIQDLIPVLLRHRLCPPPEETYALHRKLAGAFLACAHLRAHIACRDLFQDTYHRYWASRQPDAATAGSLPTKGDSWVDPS
How it was run: as §1

panel of 203 kinases [4] = biological target: T4, panel of 203 kinases (Homo sapiens, UniProt P27361); settings: 10 µM, n=1; kinase ERK1; read-out: Percent inhibition ERK1
T4 construct: purchased DiscoverX (KINOMEscan)
How it was run: as §1

panel of 203 kinases [5] = biological target: T5, panel of 203 kinases (Homo sapiens, UniProt P51813); settings: 10 µM, n=1; kinase BMX; read-out: Percent inhibition BMX
T5 construct: purchased DiscoverX (KINOMEscan)
T5 sequence (P51813 1-675): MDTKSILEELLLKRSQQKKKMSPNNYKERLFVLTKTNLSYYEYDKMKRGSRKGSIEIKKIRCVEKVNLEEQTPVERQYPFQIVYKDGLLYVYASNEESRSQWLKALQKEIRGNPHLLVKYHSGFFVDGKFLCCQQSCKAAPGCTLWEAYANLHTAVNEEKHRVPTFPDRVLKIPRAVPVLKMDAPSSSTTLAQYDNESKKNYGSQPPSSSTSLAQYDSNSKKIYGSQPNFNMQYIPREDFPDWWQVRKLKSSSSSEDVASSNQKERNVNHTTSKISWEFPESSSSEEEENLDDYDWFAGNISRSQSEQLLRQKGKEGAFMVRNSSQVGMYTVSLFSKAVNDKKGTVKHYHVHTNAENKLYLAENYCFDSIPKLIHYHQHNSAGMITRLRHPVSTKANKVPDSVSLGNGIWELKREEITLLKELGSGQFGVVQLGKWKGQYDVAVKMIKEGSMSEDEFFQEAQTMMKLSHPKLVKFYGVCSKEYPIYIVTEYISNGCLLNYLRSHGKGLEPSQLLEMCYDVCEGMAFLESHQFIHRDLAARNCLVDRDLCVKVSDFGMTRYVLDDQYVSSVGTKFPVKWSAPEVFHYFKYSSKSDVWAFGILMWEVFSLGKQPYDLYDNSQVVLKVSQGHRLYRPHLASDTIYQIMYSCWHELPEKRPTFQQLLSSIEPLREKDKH
How it was run: as §1

panel of 203 kinases [6] = biological target: T6, panel of 203 kinases (Homo sapiens, UniProt Q06187); settings: 10 µM, n=1; kinase BTK; read-out: Percent inhibition BTK
T6 construct: purchased DiscoverX (KINOMEscan)
How it was run: as §1

panel of 203 kinases [7] = biological target: T7, panel of 203 kinases (Homo sapiens, UniProt Q9P289); settings: 10 µM, n=1; kinase MST4; read-out: Percent inhibition MST4
T7 construct: purchased DiscoverX (KINOMEscan)
How it was run: as §1

panel of 203 kinases [8] = biological target: T8, panel of 203 kinases (Homo sapiens, UniProt Q96L34); settings: 10 µM, n=1; kinase MARK4; read-out: Percent inhibition MARK4
T8 construct: purchased DiscoverX (KINOMEscan)
T8 sequence (Q96L34 1-752): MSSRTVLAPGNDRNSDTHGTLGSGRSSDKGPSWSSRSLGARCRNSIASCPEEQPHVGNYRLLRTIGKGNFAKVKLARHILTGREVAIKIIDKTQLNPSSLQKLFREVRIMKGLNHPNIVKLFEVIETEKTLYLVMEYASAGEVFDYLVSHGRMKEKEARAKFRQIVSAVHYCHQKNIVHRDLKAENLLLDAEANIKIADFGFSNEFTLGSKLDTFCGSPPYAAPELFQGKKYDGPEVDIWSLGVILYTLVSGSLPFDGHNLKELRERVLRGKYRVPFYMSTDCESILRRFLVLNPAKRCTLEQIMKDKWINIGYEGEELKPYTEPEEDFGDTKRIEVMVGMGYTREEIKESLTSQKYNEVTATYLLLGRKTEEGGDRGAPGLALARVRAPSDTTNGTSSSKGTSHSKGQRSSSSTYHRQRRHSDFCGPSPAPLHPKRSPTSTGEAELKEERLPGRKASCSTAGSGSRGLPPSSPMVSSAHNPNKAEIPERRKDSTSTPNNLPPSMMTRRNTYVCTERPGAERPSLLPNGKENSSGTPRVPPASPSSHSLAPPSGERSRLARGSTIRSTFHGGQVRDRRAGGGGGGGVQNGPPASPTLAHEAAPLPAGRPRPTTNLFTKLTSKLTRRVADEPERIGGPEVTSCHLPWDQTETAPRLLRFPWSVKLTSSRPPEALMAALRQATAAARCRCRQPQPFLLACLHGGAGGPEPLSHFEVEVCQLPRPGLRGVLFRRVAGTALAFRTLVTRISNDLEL
How it was run: as §1

panel of 203 kinases [9] = biological target: T9, panel of 203 kinases (Homo sapiens, UniProt O94804); settings: 10 µM, n=1; kinase LOK; read-out: Percent inhibition LOK
T9 construct: purchased DiscoverX (KINOMEscan)
How it was run: as §1

panel of 203 kinases [10] = biological target: T10, panel of 203 kinases (Homo sapiens, UniProt Q9P0L2); settings: 10 µM, n=1; kinase MARK1; read-out: Percent inhibition MARK1
T10 construct: purchased DiscoverX (KINOMEscan)
How it was run: as §1

T1 sequence (Q13557 whole entry): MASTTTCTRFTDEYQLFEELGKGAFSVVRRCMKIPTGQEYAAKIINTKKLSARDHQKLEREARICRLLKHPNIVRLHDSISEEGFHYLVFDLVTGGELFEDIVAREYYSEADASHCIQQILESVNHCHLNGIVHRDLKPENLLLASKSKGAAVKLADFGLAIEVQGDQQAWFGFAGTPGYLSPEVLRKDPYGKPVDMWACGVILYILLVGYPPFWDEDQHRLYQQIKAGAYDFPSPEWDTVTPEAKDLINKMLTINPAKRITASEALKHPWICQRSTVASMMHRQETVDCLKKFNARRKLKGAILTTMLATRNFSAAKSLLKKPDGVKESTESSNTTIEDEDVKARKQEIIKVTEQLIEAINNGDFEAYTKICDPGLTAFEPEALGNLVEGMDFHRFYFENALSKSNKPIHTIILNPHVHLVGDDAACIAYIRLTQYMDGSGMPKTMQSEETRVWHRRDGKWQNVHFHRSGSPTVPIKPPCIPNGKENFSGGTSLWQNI
T6 sequence (Q06187 whole entry): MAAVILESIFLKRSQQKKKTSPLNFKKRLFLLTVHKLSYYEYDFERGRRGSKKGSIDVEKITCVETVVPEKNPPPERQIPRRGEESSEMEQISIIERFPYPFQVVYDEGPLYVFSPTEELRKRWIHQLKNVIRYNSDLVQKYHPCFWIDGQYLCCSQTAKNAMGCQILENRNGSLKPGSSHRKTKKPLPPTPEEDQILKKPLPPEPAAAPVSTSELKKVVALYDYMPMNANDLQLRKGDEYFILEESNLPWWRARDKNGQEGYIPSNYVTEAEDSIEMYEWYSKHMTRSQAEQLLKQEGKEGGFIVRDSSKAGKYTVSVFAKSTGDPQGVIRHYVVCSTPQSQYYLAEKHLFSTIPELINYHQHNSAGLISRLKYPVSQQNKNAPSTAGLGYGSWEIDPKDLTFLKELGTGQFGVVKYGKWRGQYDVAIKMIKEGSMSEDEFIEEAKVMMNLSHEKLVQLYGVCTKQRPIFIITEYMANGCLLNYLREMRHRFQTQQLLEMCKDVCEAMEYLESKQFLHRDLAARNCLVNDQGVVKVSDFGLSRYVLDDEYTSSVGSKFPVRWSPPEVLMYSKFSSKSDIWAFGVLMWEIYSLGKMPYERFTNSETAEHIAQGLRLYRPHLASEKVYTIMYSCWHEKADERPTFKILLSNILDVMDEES
T7 sequence (Q9P289 whole entry): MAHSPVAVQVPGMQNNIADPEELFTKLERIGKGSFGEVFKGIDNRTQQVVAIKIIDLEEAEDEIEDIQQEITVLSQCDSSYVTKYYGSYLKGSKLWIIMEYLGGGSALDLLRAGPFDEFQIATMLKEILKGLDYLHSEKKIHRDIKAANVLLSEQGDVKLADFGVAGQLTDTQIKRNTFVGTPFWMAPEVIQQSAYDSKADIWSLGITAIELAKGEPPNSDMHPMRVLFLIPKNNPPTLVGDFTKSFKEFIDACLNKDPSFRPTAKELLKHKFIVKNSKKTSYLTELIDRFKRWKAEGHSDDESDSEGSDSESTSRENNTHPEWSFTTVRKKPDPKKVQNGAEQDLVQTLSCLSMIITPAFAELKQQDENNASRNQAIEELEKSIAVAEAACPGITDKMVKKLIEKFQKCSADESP
T9 sequence (O94804 whole entry): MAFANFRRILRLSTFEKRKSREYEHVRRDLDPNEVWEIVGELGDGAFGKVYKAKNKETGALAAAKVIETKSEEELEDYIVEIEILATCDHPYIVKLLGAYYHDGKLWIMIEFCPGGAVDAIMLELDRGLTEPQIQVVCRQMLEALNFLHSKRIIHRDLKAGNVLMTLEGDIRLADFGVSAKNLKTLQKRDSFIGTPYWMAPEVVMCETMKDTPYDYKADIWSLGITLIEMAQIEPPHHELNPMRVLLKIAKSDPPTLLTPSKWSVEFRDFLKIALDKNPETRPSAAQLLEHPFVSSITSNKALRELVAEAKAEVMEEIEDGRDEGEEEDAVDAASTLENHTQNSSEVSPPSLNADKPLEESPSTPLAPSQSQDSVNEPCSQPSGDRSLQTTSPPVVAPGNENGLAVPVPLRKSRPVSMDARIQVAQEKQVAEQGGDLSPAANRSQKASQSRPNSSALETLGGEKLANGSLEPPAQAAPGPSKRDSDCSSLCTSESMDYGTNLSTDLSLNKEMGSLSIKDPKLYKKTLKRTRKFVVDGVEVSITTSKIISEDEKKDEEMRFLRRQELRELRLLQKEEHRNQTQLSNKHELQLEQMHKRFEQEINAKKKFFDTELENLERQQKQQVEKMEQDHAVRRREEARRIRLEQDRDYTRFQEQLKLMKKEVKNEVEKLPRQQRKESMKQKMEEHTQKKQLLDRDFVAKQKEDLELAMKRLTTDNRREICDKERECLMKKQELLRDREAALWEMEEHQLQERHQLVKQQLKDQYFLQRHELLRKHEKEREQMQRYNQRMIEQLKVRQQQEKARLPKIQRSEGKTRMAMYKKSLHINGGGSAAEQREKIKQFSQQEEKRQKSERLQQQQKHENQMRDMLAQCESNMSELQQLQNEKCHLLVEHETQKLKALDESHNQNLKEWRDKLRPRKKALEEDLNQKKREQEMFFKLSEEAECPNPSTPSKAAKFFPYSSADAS
T10 sequence (Q9P0L2 whole entry): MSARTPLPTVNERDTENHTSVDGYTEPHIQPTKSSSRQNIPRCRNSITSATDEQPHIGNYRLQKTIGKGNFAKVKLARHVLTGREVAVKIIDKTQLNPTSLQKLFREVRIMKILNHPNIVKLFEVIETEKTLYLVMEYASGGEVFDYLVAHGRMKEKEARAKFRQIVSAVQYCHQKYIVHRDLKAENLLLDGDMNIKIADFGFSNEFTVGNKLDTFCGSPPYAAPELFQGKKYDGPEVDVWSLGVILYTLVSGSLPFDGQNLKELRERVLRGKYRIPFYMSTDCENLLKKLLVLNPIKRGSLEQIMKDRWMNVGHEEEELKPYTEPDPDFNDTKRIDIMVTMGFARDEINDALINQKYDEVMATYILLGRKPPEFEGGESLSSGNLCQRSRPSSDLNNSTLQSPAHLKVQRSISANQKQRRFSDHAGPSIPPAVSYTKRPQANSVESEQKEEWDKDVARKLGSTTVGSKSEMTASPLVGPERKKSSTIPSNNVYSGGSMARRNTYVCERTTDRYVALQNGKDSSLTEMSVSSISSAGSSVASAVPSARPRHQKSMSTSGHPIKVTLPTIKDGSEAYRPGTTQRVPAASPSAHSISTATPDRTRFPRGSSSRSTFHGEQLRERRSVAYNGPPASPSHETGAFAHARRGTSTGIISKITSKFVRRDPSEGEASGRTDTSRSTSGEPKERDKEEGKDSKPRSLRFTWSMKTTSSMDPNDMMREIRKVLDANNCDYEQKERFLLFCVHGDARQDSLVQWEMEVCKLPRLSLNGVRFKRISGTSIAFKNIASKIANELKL
T2 sequence (P53671 whole entry): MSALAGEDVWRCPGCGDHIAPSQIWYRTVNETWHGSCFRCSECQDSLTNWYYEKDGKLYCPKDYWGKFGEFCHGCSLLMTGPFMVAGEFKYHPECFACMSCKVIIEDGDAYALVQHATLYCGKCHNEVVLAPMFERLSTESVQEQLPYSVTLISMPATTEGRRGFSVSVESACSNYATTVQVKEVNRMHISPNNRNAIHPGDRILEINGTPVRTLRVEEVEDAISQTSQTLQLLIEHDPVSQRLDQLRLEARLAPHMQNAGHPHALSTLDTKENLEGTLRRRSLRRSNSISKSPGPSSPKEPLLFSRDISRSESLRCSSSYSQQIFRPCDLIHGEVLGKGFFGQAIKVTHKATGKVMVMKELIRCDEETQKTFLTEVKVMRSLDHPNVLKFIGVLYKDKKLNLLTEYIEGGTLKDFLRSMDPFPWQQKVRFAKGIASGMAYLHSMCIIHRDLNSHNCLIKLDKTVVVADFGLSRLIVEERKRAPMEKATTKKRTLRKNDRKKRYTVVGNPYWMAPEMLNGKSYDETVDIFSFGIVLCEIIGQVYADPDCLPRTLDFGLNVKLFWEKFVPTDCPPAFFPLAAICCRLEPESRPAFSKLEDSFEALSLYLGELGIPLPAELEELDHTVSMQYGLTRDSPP
T4 sequence (P27361 whole entry): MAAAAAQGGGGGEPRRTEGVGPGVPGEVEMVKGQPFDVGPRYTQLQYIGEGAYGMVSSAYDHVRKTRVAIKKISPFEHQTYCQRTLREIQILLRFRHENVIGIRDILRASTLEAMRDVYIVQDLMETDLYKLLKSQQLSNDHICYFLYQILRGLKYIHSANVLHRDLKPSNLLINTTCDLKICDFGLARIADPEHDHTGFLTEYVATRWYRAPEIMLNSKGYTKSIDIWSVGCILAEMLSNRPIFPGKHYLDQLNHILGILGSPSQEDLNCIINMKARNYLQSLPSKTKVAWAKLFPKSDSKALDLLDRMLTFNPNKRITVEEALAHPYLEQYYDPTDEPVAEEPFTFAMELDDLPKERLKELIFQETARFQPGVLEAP

Row | Structure (SMILES) | inhibition at 10 µM (panel of 203 kinases [1]) | inhibition at 10 µM (panel of 203 kinases [2]) | inhibition at 10 µM (panel of 203 kinases [3]) | inhibition at 10 µM (panel of 203 kinases [4]) | inhibition at 10 µM (panel of 203 kinases [5]) | inhibition at 10 µM (panel of 203 kinases [6]) | inhibition at 10 µM (panel of 203 kinases [7]) | inhibition at 10 µM (panel of 203 kinases [8]) | inhibition at 10 µM (panel of 203 kinases [9]) | inhibition at 10 µM (panel of 203 kinases [10])
1 | CN1CCN(c2ccc(Nc3nccc(-c4cnn5ncccc45)n3)cc2C#N)CC1 [Compound 1] | 96.5% | 100% | 98.6% | 98.5% | 0% | 0% | 92.8% | 0% | 88.7% | 85.3%
2 | COc1ccc(Nc2nccc(-c3cnn4ncccc34)n2)cc1 [Compound 2] | 79.5% | 88% | 94.5% | 98.5% | 0% | 0% | 0% | 67.8% | 0% | 0%
3 | Cc1ccc(O)cc1Nc1ccnc(Nc2cccc(C(N)=O)c2)n1 [Compound 3] | 0% | 96.6% | 100% | 67.8% |  | 96% | 0% | 0% | 82.6% | 0%
4 | Cc1ccc(O)cc1N(C)c1ccnc(Nc2cccc(S(N)(=O)=O)c2)n1 [Compound 4] | 0% | 96% | 100% | 98.1% | 100% | 95% | 0% | 0% | 99.6% | 0%
5 | Fc1cccc(COc2ccc(Nc3ncnc4c3CN(CCN3CCOCC3)CC4)cc2Cl)c1 [Compound 6] | 0% | 0% | 0% | 0% | 0% | 0% | 0% | 0% | 0% | 0%
6 | COc1cc(Nc2nccc(-c3sc(N)nc3-c3cccc(NC(=O)c4c(F)cccc4F)c3)n2)cc(OC)c1OC [Compound 7] | 0% | 100% | 100% | 99.8% | 100% | 100% | 89.2% | 0% | 100% | 79%
7 | C[C@@H](Oc1cc(-c2cnc3ccccn23)sc1C(N)=O)c1ccccc1Cl [Compound 8] | 0% | 0% | 0% | 83.2% | 0% | 0% | 0% | 0% | 100% | 0%
8 | c1ccc(COc2cccc(-c3ccnc4[nH]ccc34)c2)cc1 [Compound 9] | 0% | 0% | 0% | 0% | 0% | 0% | 0% | 0% | 0% | 0%
9 | Clc1ccc(Nc2ncc(-c3ccccc3)s2)cc1 [Compound 10] | 0% | 0% | 0% | 0% | 0% | 0% | 0% | 0% | 0% | 0%
10 | Nc1ncc2c(-c3ccncc3)c[nH]c2n1 [Compound 11] | 0% | 0% | 0% | 0% | 0% | 0% | 84% | 93.8% | 0% | 0%
